What follows are molecules tested against T1, TRPC5 (Homo sapiens, UniProt Q9UL62) (assay: TRPC5 fluorescence assay, membrane potential dye, flexstation (FLEX)). Conditions: Table 6; HEK293 cells overexpressing TRPC5.
T1 construct: expressed in transfected cells; host or cells: HEK 293
T1 sequence (Q9UL62 1-973): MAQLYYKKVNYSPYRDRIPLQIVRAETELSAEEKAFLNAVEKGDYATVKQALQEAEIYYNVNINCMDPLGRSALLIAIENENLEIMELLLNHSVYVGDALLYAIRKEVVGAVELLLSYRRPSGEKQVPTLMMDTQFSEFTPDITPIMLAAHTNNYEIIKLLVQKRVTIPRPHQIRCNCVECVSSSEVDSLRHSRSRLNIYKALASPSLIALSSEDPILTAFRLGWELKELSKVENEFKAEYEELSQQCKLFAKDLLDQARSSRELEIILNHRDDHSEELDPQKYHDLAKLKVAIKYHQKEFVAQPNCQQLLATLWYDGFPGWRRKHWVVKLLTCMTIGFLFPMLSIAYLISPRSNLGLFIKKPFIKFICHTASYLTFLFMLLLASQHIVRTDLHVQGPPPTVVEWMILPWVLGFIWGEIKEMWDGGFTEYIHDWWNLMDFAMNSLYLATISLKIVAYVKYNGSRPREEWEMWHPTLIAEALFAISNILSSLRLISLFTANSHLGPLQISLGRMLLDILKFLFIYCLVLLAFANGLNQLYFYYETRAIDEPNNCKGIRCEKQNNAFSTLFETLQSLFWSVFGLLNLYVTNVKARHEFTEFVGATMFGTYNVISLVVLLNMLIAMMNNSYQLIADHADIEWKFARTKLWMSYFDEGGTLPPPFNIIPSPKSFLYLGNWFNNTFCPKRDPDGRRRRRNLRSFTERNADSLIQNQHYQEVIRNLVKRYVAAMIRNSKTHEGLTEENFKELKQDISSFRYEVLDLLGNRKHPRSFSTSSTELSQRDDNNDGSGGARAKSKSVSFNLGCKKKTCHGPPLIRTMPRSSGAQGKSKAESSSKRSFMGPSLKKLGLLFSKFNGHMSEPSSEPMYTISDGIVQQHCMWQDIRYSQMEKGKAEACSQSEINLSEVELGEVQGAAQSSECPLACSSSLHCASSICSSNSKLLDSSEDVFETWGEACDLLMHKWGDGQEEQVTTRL
Type: cell-based
Experimental: HEK 293 cells expressing human TRPC5 cells were trypsinised, counted and seeded in black, clear-bottomed 96-well plates at a density of 50,000 cells per well and incubated overnight. Next day, the cells were loaded with membrane potential dye. Dye solution was made up according to the manufacturer's instructions in HEPES buffered Hank's balanced salt solution (HBSS). Dye solution (10 μL) was added to the wells and incubated at 37° C. for 1 hour. The test compounds and standard inhibitors were added to the wells and incubated at room temperature for 10 minutes. The plates were then placed in the flexstation and fluorescence monitored every 1.52 seconds. After 20 seconds, 10 μL of the appropriate standard agonist was added and the fluorescence monitored for 2 minutes at ex/emm: 530 nm/565 nm.

Compound	IC50 [µM]
O=c1[nH]ncc(N2CCc3nn(Cc4ccc(F)cc4C(F)(F)F)cc3C2)c1Cl	1e-05 to 1
C[C@@H](c1ccccc1C(F)(F)F)n1nnc2c1CCN(c1cn[nH]c(=O)c1Cl)C2 [drawing 908]	1e-05 to 1
Cc1ncccc1Cn1cnc2c1CN(c1cn[nH]c(=O)c1Cl)CC2	1 to 5
C[C@H](c1ccccc1C(F)(F)F)n1nnc2c1CCN(c1cn[nH]c(=O)c1C#N)C2	1e-05 to 1

The molecules below were run against T2, TRPC4 (Homo sapiens, UniProt Q9UBN4) (assay: TRPC4 FLIPR Assay (HEK-TREx hTRPC4, Englerin A stimulation)). Conditions: not given.
T2 construct: expressed in transfected cells; host or cells: HEK-TREx (HekTrex-293), cell line ICLN-1694, tetracycline-induced
T2 sequence (Q9UBN4 1-982 isoform Q9UBN4-5): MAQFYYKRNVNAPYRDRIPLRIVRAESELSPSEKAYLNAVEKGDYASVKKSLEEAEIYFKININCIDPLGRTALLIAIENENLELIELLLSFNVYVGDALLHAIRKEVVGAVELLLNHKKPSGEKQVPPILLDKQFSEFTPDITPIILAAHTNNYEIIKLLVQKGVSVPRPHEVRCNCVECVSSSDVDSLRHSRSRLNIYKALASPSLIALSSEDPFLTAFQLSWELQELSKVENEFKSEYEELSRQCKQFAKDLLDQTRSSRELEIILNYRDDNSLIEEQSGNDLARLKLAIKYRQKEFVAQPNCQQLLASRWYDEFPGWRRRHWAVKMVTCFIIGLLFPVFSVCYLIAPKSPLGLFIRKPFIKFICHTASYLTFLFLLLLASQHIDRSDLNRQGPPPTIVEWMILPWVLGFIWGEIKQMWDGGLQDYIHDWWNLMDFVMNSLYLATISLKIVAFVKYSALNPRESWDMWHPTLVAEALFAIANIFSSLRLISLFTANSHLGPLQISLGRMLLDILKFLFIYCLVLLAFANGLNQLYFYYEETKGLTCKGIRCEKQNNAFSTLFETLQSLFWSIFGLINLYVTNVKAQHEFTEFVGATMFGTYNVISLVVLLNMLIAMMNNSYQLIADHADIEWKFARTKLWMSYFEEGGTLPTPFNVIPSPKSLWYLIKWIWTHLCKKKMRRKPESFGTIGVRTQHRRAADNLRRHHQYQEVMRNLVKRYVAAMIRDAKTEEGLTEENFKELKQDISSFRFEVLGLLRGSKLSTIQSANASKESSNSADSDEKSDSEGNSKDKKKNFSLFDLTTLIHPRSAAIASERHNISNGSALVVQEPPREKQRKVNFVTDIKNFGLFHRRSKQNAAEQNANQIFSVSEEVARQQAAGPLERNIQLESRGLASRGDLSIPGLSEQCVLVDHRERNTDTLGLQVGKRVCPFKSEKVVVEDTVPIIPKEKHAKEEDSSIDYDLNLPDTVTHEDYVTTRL
Type: cell-based
Experimental: FLIPR Assay Buffer (Earls Balanced Salt Solution (EBSS)) was prepared as follows:
10-point dose response curves were generated using the Echo-550 acoustic dispenser. Compound source plates were made by serially diluting compound stocks to create 10 mM, 1 mM, and 0.1 mM solutions in DMSO into Echo certified LDV plates. The Echo then serially spotted 100% DMSO stock solutions into source dose response plates to generate a 4-fold dilution scheme. 100% DMSO was added to the spotted dose response plates to bring the final volume to 5 μl. […] of the dose response stock plate was then spotted into pre-incubation and stimulation assay plates. […] of pre-incubation buffer and 100 μl of stimulation buffer was then added to the plates resulting in a final assay test concentration range of 30 μM to 0.0001 μM with a final DMSO concentration of 0.3%.
Experimental Methods: Cells expressing TRPC4 were plated onto 384 well, black pdl-coated microplates and maintained in TRPC4 growth media the day prior to use for experiments. TRPC4 expression was induced by the application of 1 μg/ml tetracycline at the time of plating. […] Cells were incubated at room temperature, protected from light, for 60-90 minutes. After the incubation period, the dye was removed and replaced with 10 μl of EBSS. Cell, pre-incubation and stimulation plates were loaded onto the FLIPR-II and the assay was initiated. The FLIPR measured a 10 second baseline and then added 10 μl of 2× compounds (or controls). Changes in fluorescence were monitored for an additional 5 minutes. After a 5 minute pre-incubation, 20 μl of 2× Englerin A (with 1× compound or controls) was added to the cell plate. The final Engerlin A stimulation concentration in the assay is 100 nM. After the Englerin A addition, changes in fluorescence were monitored for an additional 5 minutes.
Test Agent Effect: Test agent modulation of TRPC4 calcium response was determined as follows. After the Englerin A, fluorescence was monitored for a 5 minute period. The maximum relative fluorescence response (minus the control response of […] of the control inhibitor) was captured and exported from the FLIPR. Test agent effect was calculated as % inhibition using the following formula: % inhibition=((RFU TEST AGENT−Plate Average RFU REF INHIB)/(Plate Average RFU CONTROL−Plate Average RFU REF INHIB))×100

Compound	IC50 [µM]
O=C1CN(c2cn[nH]c(=O)c2Cl)CCN1Cc1cc(F)ccc1C(F)(F)F	1e-05 to 1

Same assay, conditions: Table 8; HEK-TREx hTRPC4; read-out: TRPC4 FLIPR IC50

Compound	IC50 [µM]
COCc1ccccc1Cn1cnc2c1CCN(c1cn[nH]c(=O)c1Cl)C2 [drawing 965]	1e-05 to 1
C[C@@H](c1ccc(F)cc1C(F)F)n1nnc2c1CCN(c1cn[nH]c(=O)c1Cl)C2 [drawing 981]	1e-05 to 1
O=c1[nH]ncc(N2CCc3c(ncn3Cc3ccccc3OC(F)(F)F)C2)c1Cl	1e-05 to 1
O=C1CN(c2cn[nH]c(=O)c2Cl)CCN1Cc1ccccc1C(F)F	1e-05 to 1
COC[C@H](c1ccccc1C(F)(F)F)n1cnc2c1CCN(c1cn[nH]c(=O)c1Cl)C2 [drawing 988]	1e-05 to 1
O=c1[nH]ncc(N2CCc3c(ncn3Cc3ccccc3C(F)(F)F)C2)c1Br [drawing 950]	1e-05 to 1
CNC(=O)c1nc2c(n1Cc1ccccc1C(F)(F)F)CCN(c1cn[nH]c(=O)c1Cl)C2 [drawing 996]	1e-05 to 1
Cc1ccccc1[C@H](C)N1CCN(c2cn[nH]c(=O)c2Cl)CC1=O [drawing 1020]	10 to 500
Cc1cc(Cl)ccc1CN1CCN(c2cn[nH]c(=O)c2Cl)CC1=O [drawing 1018]	1 to 5
CCS(=O)(=O)c1nc2c(n1Cc1ccccc1C(F)(F)F)CCN(c1cn[nH]c(=O)c1Cl)C2 [drawing 971]	1e-05 to 1
O=c1[nH]ncc(N2CCc3c(ncn3Cc3ccccc3C(F)(F)F)C2)c1Cl [drawing 944]	1e-05 to 1
C[C@@H](c1ccccc1C(F)(F)F)N1CCN(c2cn[nH]c(=O)c2Cl)CC1=O [drawing 987]	1e-05 to 1
O=C1CN(c2cn[nH]c(=O)c2Cl)CCN1Cc1ccccc1Cl	1e-05 to 1
CCc1cc(F)ccc1Cn1cnc2c1CCN(c1cn[nH]c(=O)c1Cl)C2 [drawing 958]	1e-05 to 1
C[C@@H](c1cccnc1CC(F)F)n1nnc2c1CCN(c1cn[nH]c(=O)c1Cl)C2 [drawing 991]	1e-05 to 1
O=c1[nH]ncc(N2CCN(Cc3ccccc3Cl)CC2)c1Cl [drawing 1010]	1 to 5
C[C@H](c1ccccc1C(F)(F)F)n1nnc2c1CCN(c1cn[nH]c(=O)c1Cl)[C@H]2C [drawing 970]	1e-05 to 1
C[C@@H](c1ccc(F)cc1C(F)(F)F)N1CCN(c2cn[nH]c(=O)c2Cl)CC1=O [drawing 993]	1e-05 to 1
CCc1ccccc1Cn1cnc2c1CCN(c1cn[nH]c(=O)c1Cl)C2	1e-05 to 1

Compound	IC50 [µM]
O=c1[nH]ncc(N2CCc3c(ncn3Cc3ccccc3C(F)F)C2)c1Cl [drawing 952]	1e-05 to 1
C[C@H](c1ccc(F)cc1C(F)(F)F)n1nnc2c1CCN(c1cn[nH]c(=O)c1Cl)[C@H]2C [drawing 976]	1e-05 to 1
O=c1[nH]ncc(N2CCc3c(ncn3Cc3ccccc3)C2)c1Cl [drawing 939]	1e-05 to 1
O=c1[nH]ncc(N2CCc3c(cnn3Cc3ccc(F)cc3C(F)(F)F)C2)c1Cl [drawing 951]	1e-05 to 1
CCc1nccc(C)c1CN1CCN(c2cn[nH]c(=O)c2Cl)CC1	1 to 5
CS(=O)(=O)c1nc2c(n1Cc1ccccc1C(F)(F)F)CCN(c1cn[nH]c(=O)c1Cl)C2 [drawing 1002]	1e-05 to 1
O=c1[nH]ncc(N2CCc3c(nnn3Cc3ccccc3C(F)(F)F)C2)c1Cl [drawing 948]	1e-05 to 1
C[C@H](c1ccccc1)n1cnc2c1CCN(c1cn[nH]c(=O)c1Cl)C2 [drawing 940]	1e-05 to 1
Cc1ccccc1[C@@H](C)N1CCN(c2cn[nH]c(=O)c2Cl)CC1=O	1e-05 to 1
O=c1[nH]ncc(N2CCc3c(Cc4ccc(F)cc4C(F)(F)F)n[nH]c3C2)c1Cl [drawing 1005]	1e-05 to 1
Cc1ncccc1CN1CCN(c2cn[nH]c(=O)c2Cl)CC1 [drawing 1017]	1 to 5
CN(c1ncc2c(n1)CN(c1cn[nH]c(=O)c1Cl)C2)c1ccc(F)cc1Cl [drawing 1003]	1e-05 to 1
Cc1cc(F)ccc1CN1CCN(c2cn[nH]c(=O)c2Cl)CC1 [drawing 1012]	5 to 10
C[C@H](c1ccc(F)cc1C(F)(F)F)N1C[C@@H](C)N(c2cn[nH]c(=O)c2Cl)CC1=O [drawing 992]	1e-05 to 1
O=c1[nH]ncc(N2CCc3c(c(=O)[nH]n3Cc3ccccc3C(F)(F)F)C2)c1Cl [drawing 972]	1e-05 to 1
O=c1[nH]ncc(N2CCc3c(ncn3Cc3ccc(F)cc3C(F)(F)F)C2)c1Cl [drawing 942]	1e-05 to 1
CN1CCN(Cc2nn(Cc3ccccc3C(F)F)c3c2CN(c2cn[nH]c(=O)c2Cl)CC3)C(=O)C1 [drawing 975]	1e-05 to 1
N#Cc1c(N2CCc3c(ncn3Cc3ccccc3C(F)(F)F)C2)cn[nH]c1=O [drawing 956]	1 to 5
C[C@H](c1ccccc1Cl)n1nnc2c1CCN(c1cn[nH]c(=O)c1Cl)C2 [drawing 995]	1e-05 to 1
